# Assay results from the NIST ThermoML archive (doi:10.1021/je050048y).
# ± gives the expanded uncertainty stated by the source.
# Test: mn = molality of the nth substance listed, in mol/kg
# Details: 298.15 K, 101 kPa, Liquid
viscosity (m1 = 0.4991) [mPa·s],viscosity (m1 = 1.999) [mPa·s],viscosity (m1 = 3) [mPa·s],viscosity (m1 = 0.1003) [mPa·s],viscosity (m1 = 0.4995) [mPa·s],viscosity (m1 = 0.7497) [mPa·s],viscosity (m1 = 1) [mPa·s],SMILES
0.956 ± 0.036,1.189 ± 0.043,1.374 ± 0.049,–,–,–,–,NCC(=O)O [2-aminoacetic acid] + O
–,–,–,0.918 ± 0.034,1.017 ± 0.038,1.079 ± 0.04,1.152 ± 0.042,C[C@H](N)C(=O)O [(S)-2-aminopropanoic acid] + O
